Test results reported in paper PMC10119423, “From PERK to RIPK1: Design, synthesis and evaluation of novel potent and selective necroptosis inhibitors” (Frontiers in Chemistry, 2023).
Like-named read-outs stand apart in the source and are kept apart here.

Columns and labels:
PERK = target: T1, PERK (Mus musculus, UniProt Q9Z2B5); assay: PERK autophosphorylation by Western blot in tunicamycin-stimulated immortalized MEFs; assay type: cell-based
T1 construct: Immortalized MEFs were pretreated for 30 min with increasing concentrations of GSK’157 and the indicated compounds and stimulated with tunicamycin; endogenous in cells; host or cells: immortalized mouse embryonic fibroblasts (MEFs, C57Bl6/J)
T1 sequence (Q9Z2B5 29-1114): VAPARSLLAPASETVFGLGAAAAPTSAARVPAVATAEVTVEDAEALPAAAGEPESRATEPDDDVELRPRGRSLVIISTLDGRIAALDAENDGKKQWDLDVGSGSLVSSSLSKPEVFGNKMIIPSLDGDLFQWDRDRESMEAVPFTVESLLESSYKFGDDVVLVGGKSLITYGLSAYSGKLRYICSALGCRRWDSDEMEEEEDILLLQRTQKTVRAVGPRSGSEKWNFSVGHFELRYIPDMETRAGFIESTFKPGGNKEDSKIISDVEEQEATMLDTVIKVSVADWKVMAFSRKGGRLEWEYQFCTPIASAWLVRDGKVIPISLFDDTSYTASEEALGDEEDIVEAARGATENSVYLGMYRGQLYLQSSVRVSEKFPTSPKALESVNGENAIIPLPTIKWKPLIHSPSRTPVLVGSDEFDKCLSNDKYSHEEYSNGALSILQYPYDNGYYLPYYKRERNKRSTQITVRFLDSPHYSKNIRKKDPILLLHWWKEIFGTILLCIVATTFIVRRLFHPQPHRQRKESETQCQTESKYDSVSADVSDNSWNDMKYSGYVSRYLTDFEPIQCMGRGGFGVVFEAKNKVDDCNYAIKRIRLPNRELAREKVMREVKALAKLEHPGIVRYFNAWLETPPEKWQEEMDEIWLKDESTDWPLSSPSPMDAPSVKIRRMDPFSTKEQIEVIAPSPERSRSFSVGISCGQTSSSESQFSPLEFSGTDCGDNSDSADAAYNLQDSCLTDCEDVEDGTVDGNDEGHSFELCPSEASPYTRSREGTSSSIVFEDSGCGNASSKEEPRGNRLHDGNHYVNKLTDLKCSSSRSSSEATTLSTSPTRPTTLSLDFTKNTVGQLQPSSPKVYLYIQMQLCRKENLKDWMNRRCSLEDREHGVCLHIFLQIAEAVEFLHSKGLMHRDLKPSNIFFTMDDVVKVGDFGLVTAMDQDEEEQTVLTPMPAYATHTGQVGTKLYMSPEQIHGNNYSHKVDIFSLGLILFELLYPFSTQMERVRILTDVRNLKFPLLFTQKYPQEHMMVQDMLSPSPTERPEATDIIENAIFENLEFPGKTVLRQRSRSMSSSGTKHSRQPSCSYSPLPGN
Description: MEFs were seeded in 6-well plates at a density of 300.000 cells/well in 2 mL. The next day, the cells were suspended in 1 mL of medium and pre-treated for 30 min with the indicated compounds at 1/5 dilutions series for PERK ranging from 5 to 0.04 µM and 1 μg/mL of Tm followed by 4 h treatment with 20 ng/mL of hTNF. For RIPK1, the cells were pre-treated at 1/10 dilutions series ranging from 10 to 0.01 nM, 50 µM zVAD.fmk and 1 µM TAKi before stimulation with 20 ng/mL of hTNF for 2.5 h. Then, the cells were washed two times with 1 mL of ice-cold PBS before lysis in 0.2 mL of Laemmli buffer 1x (10% (w/v) SDS, 50% glycerol, 0.5% bromophenol blue, 250 mM Tris–HCl pH 6.8) and 250 mM of dithiothreitol (DTT). The cell lysate was then collected and boiled at 95 °C for 10min and stored at −20°C. Proteins expression was later monitored by immunoblotting.
Their activities were evaluated by comparing the intensity of the signal to unstimulated MEFs (considered as zero phosphorylation) and Tunicamycin stimulated cells (considered as 100% PERK phosphorylation). […] The MEFs were pre-incubated for 30 min with the different compounds (0.01 nM–1000 nM) and then stimulated with human TNF (20 ng/mL) for 2.5 h. Similar to the PERK assessment, IC50 values for RIPK1 inhibition were estimated as a range of concentrations, and are reported in Table 1.

immortalized MEFs = assay: RIPK1 kinase-dependent necroptosis (hTNF + zVAD.fmk) in MEFs, Sytox Green; assay type: cell-based, mouse; conditions: Mus musculus, 24 h;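 note: cell death taken as background-corrected Sytox Green fluorescence relative to the maximal signal of cells fully permeabilized with 0.1% Triton X-100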
Description: In brief, the cells were seeded in duplicate at 10,000 cells per well in a 96-well adherent plate and incubated overnight at 37°C with 5% CO2. […] All the compound stock solutions were prepared in DMSO at 200 µM concentration. After stimulating the cells with human TNF at 20 ng/mL the plate was transferred to the incubator. […] The cell death was calculated by subtracting the background fluorescence from the induced Sytox Green fluorescence and by dividing the obtained result by the maximal fluorescence (minus the background fluorescence) obtained by permeabilization of the cells by using Triton X-100 at a final concentration of 0.1%. Curves were plotted in GraphPad 9 for the IC50 calculation.
Consequently, the compounds were evaluated for their potential protection of RIPK1-mediated necroptosis following human TNF stimulation.

HT-29 = assay: Necroptosis (hTNF + TAK1i + zVAD.fmk) in HT-29 cells, Sytox Green; conditions: Homo sapiens, HT-29, read-out: Necroptosis hTNF + TAK1i + zVAD.fmk HT-29 IC50
Description: In brief, the cells were seeded in duplicate at 10,000 cells per well in a 96-well adherent plate and incubated overnight at 37°C with 5% CO2. […] All the compound stock solutions were prepared in DMSO at 200 µM concentration. After stimulating the cells with human TNF at 20 ng/mL the plate was transferred to the incubator. Sytox Green intensity was measured in function of time at 0, 14 and 24 h with an excitation filter of 485 nm, an emission filter of 520 nm. The cell death was calculated by subtracting the background fluorescence from the induced Sytox Green fluorescence and by dividing the obtained result by the maximal fluorescence (minus the background fluorescence) obtained by permeabilization of the cells by using Triton X-100 at a final concentration of 0.1%. Curves were plotted in GraphPad 9 for the IC50 calculation.
To induce necroptosis in human colorectal adenocarcinoma cell line (HT-29) together with hTNF and the pan caspases inhibitor zVAD.fmk, TAK1 inhibitor is also needed.

## Cn1cc(-c2ccc3c(c2F)CCN3C(=O)Cc2ccc(C(F)(F)F)cn2)c2c(N)ncnc21 [Compound 22]
PERK; MEFs, Western blot, 0.04, 0.2, 1 and 5 µM, highest concentration tested 5 µM
  PERK inhibition at the tested concentrations (in words): no PERK inhibition
PERK; immortalized MEFs, 30 min pretreatment, tunicamycin 1 μg/ml for 4 h, PERK autophosphorylation, read-out: PERK inhibition (IC50 estimated from a Western blot)
  IC50: > 5000 nM
Immortalized MEFs; immortalized MEFs, zVAD-fmk 50 μM + hTNF 20 ng/ml, Sytox Green at 24 h, Table 1 series, read-out: IC50 necroptosis
  IC50: 2.9 nM
Immortalized MEFs; MEFs, hTNF + zVAD.fmk (20 ng/mL), Table 2, read-out: Necroptosis hTNF + zVAD.fmk MEFs IC50
  IC50: 1.06 nM
HT-29
  IC50: 6.5 nM
